Data taken from patent US20230218630A1, “COMBINATION OF ALCAFTADINE AND A CORTICOSTEROID” (priority 2020, published 2023).

Columns and labels:
H1 receptors = H1 receptors (Homo sapiens, UniProt P35367); settings: compared to azelastine and olapatadine; cited from earlier work
H2 receptors = H2 receptors (Homo sapiens, UniProt P25021); settings: compared to azelastine and olapatadine; cited from earlier work
[1] = Pharmacokinetics after intranasal administration in rabbits; settings: for Tmax: male, New Zealand white, rabbit, plasma, inhaled or intranasal
Procedure: The pharmacokinetic profiles of the alcaftadine test formulations 4A, 4B, and 4C as well as an olapatdine nasal formulation were each determined on 6 male New Zealand white rabbits.
(§1) The study was carried out on total 24 male New Zealand white rabbits, which were segregated into four groups (G1 to G4, 6 rabbits/group). Mild anaesthesia was induced in all rabbits by inhalation of 2% isoflurane. Three groups (G1-G3) of anaesthetized rabbits were intranasally administered 250 μL of alcaftadine once-daily using the formulations of Examples 10A, 10B, and 10C. A comparator, 250 μL of olopatadine at a concentration of 0.6% w/v, was intranasally administered once-daily to a fourth group G4 of anaesthetized rabbits.
Sampling details for the test and reference formulations: Approximately 0.5 mL of blood sample from each rabbit was withdrawn via marginal ear vein into pre-labelled Eppendorf tubes containing 10% EDTA as an anticoagulant. Blood samples were withdrawn at 0 min, 5 min, 10 min, 15 min, 30 min, 60 min, 120 min, 240 min, 480 min and 1440 min after administration of test and reference formulations.
Procedure for sample preparation: Collected blood samples were mixed gently and kept on crushed ice. Plasma samples were separated after centrifugation at 3500 rpm for 10 min at 4° C. Plasma separation was carried out within 30 min of sample collection and stored at −70±10° C. The animals were euthanized by intravenous administration of sodium thiopental injection overdose and nasal epithelium was collected. Half of the tissues of nasal epithelium were homogenized using phosphate buffered solution (20% homogenation) for quantification of alcaftadine and olopatidine. The remaining half of the tissues were stored in 10% neutral buffered formalin for detailed gross histopathological examination such as necrosis, inflammation or any changes during necropsy.
Rabbit plasma and nasal epithelial tissue concentrations of alcaftadine or olopatidine were determined using a fit-for-purpose LC-MS/MS method with LLOQ of 0.500 ng/mL or 0.250 ng/mL, respectively. The pharmacokinetic parameters were evaluated using Phoenix WinNonlin® Ent-Version 8.0 by non-compartmental analysis.

[2] = Nasal irritation and histopathology of nasal epithelium in rabbits; format: in vivo, male New Zealand white rabbits; settings: intranasal, doses of 0.312 mg, 0.625 mg and 1.25 mg, all three groups
Procedure: as §1
The animals were euthanized by intravenous administration of sodium thiopental injection overdose and nasal epithelium was collected. […] The remaining half of the tissues were stored in 10% neutral buffered formalin for detailed gross histopathological examination such as necrosis, inflammation or any changes during necropsy.

[3] = single administration, doses of 0.625 to 1.25 mg

H1 receptors, sequence (P35367 whole entry): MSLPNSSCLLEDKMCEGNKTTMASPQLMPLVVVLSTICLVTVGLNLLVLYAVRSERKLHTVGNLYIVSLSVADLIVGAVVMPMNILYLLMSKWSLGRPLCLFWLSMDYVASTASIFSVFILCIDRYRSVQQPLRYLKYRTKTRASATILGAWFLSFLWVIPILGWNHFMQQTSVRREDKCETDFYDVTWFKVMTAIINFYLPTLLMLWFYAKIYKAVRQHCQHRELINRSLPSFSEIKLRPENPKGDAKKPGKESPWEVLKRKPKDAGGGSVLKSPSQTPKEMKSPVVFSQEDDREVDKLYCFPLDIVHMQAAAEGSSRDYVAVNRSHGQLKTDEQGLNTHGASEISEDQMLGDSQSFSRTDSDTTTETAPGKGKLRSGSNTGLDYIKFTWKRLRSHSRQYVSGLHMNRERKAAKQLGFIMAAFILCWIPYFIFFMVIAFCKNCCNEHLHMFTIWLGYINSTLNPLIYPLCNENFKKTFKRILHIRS
H2 receptors, sequence (P25021 whole entry): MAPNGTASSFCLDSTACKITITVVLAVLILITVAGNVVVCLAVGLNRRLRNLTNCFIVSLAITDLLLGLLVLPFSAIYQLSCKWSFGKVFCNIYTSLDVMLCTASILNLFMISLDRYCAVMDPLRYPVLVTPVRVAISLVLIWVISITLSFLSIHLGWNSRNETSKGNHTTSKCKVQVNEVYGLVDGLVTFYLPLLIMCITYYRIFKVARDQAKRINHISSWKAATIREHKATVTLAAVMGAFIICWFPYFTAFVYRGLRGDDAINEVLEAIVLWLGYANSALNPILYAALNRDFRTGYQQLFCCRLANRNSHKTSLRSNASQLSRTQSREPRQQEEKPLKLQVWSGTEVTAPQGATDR

Tmax ([1]; 0.312 mg): 4.8 min | Tmax ([1]; 0.625 mg): 4.8 min | Tmax ([1]; 1.25 mg): 4.8 min | area under the curve (AUC0-24h) [1, 3]: dose proportional | peak plasma concentrations (Cmax) [1, 3]: dose proportional
SMILES: CN1CCC(=C2c3ccccc3CCn3c(C=O)cnc32)CC1 [Alcaftadine, 6,11-dihydro-11-(1-methyl-4-piperidinylidene)-5H-imidazo[2,1-b][3]benzazepine-3-carboxaldehyde]
binding affinity to H1 receptors (H1 receptors): higher binding affinity | binding affinity to H2 receptors (H2 receptors): higher binding affinity | plasma concentration / systemic exposure ([1]; intranasal, rabbits): dose proportional with overall low systemic exposure | signs or symptoms of inflammation or irritation [2]: no signs or symptoms of inflammation or irritation were observed
